Measurements reported in patent publication US10925854B2, “Methods and compositions for preventing or treating fatty liver, protecting liver function or ameliorating liver diseases caused by fatty liver or other associated disorders” (SINEW PHARMA INC., priority 2015, dated 2021).

Legend:
[1] = system: HepG2 fatty liver cells (induced with oleic acid); assay: Reduction of TG content in oleic acid-induced HepG2 fatty liver cells; assay type: cell-based, human; details: Homo sapiens, 72 h; tested substances 1.0 uM, fatty liver cells from HepG2; read-out: TG reduction rate
Experimental: The activity of the various compounds of the present invention in reduction of fat content was analyzed by using human hepatoma cell line Hep G2.
HepG2 cell lines (15×10^6 cells) were cultured in DMEM culture No. B, incubated in an incubator with 5% CO2 at 37° C. for 24 hours, cultured in DMEM culture No. C (serum-free medium) for 24 hours, and finally cultured in DMEM culture No. D (containing oleate/albumin complex) for another 48 hours to induce HepG2 cell lines to form fatty liver cells.
HepG2 cell lines were divided into six groups, including: (1) Blank: no treatment; (2) DMSO group: cells from Blank were treated with dimethyl sulfoxide (DMSO); (3) Control: induction with oleic acid to form fatty liver cells; (4) Vehicle group: fatty liver cells formed by induction with oleic acid were treated with DMSO; (5) Positive control: fatty liver cells were treated with silymarin; and (6) Test Group: fatty liver cells were treated with various compounds of the present invention.
After incubation for 72 hours, the treated cells from each group were successively washed twice with PBS, and then incubated with 0.5 ml of trypsin/EDTA for 3 minutes. Afterwards, the cells were scraped with 2 ml of PBS and then transferred to the centrifuge tube to be shattered by ultrasonic. 20 μl of the cell extracts was taken to determine the content of protein. TG determination was performed using commercially available combination of agents (Randox). The TG content obtained above was divided by the protein content to obtain a ratio, representing a relative TG content in the cells.
The equation for calculating reduction rate (%) of TG was as follows: [1−(TG content of Test Group−TG content of Blank)/(TG content of Oleic acid induction Group−TG content of Blank)]×100%.

[2] = system: B6 mice fed with high fat feed (fatty liver); assay: Liver histopathology (H&E) and NAS score in mice with induced fatty liver; assay type: in vivo; details: for large vesicular fat droplets within liver cells in liver tissue section: H&E sections, treatment for 4 weeks (FIG. 1); for effect on liver damages (NAS, in words): fatty liver mice
Experimental: (§1) B6 mice recommended in the specification “Method for evaluating the liver protection and health care efficacies of health food” announced by the Department of Health were chosen for animal testing. More than four (4) mice were used in each group of the pre-test, while more than twelve (12) mice were used in each group of the confirmatory test. Male mice bred at 23±2° C. in an animal room with 55±15% relative humidity under normal light/dark cycle (7:00 AM-7:00 PM lights on/7:00 PM-7:00 AM lights off) and weighing 18-23 g were purchased from BioLASCO (Taipei) and housed at Laboratory Animal Center in National Defense Medical Center. The animal test was carried out according to the guideline for animal experiment of National Health Research Institutes. Mice were fed with normal feed at 3-5 g/day and unlimited supply of water for 1-2 weeks and investigated for health condition. The weight of mice was recorded once a week.
(§2) The tested animals were grouped randomly into Blank, High Fat Diet control (HFD), Positive Control (PS), and Test group. The animals of Blank were fed with normal feed. The animals of HFD were fed with high fat feed. The animals of PS were fed with high fat feed, and additionally fed with silymarin (5 mg/kg/day) by a tube. The animals of Test group were fed with high fat feed, and additionally force-fed with test compounds by a tube.
(§3) The animals of Blank were fed casually with normal feed for 12 weeks, while the animals of HFD, PS, and Test group were fed casually with high fat feed for 12 weeks. After 8 weeks of feeding, the animals of Blank and HFD were fed with deionized water by a tube once a day; the animals of PS were fed with silymarin by a tube once a day; and the animals of Test Group were fed with test compounds by a tube once a day for a duration of 4 or 8 weeks.
At the end of the test, all mice were sacrificed. One tissue block with a volume of approximately 1 cm^3 was cut from the largest right lobe of liver, fixed in 10% neutral formalin, and then dehydrated and hyalinized in various concentrations of ethanol (30, 50, 70, 95, 99.5%) and xylene. Afterwards, xylene was replaced with hot paraffin solution. At last, the tissue was embedded with paraffin solution. The finished paraffin specimen was cut into 5 pun-thickness paraffin sections by the microtome. The sections were pasted on clean slides, dried at 37° C., and then stained by H&E staining.
Liver tissue sections were deparaffinized in xylene for 30 minutes, and then successively rehydrated in 99.5%, 95%, 70%, 50%, and 30% ethanol for 30 minutes, respectively. After being soaked in distilled water for 10 minutes, the sections could be stained. The sections were first immersed in hematoxylin for 30 seconds to stain cell nuclei, then washed with distilled water for a few minutes, stained with eosin for 2-5 minutes, and washed with distilled water for a few minutes again. […]
In order to observe the changes of lesion, fat accumulation, necrosis, or fibrosis in liver cells when there was an ongoing liver damage, liver tissues were H&E stained to evaluate the degree of liver fat accumulation. […] As for the assessment of semi-quantitative analysis in pathology, it had to be confirmed by a physician or a veterinary pathologist who conducted a double-blind analysis to score (NAS score)^16 and compare all the sections without knowing the test design. […]

[3] = system: B6 mice fed with high fat feed (fatty liver); assay: Serum ALT and AST (liver dysfunction) in mice with induced fatty liver; assay type: in vivo
Experimental: as §1, §2, §3
Before testing and in the eighth (8th), twelfth (12th), and sixteenth (16th) week after testing, blood was collected from the cheek or the heart. At the end of testing, all mice were weighted and then sacrificed, and blood was collected from the cheek or the heart simultaneously. The blood specimens of mice was placed at room temperature for one hour to clot, and then the serum was separated by centrifugation in a refrigeration centrifuge at 15,700×g at 4° C. for 5 minutes. Afterwards, biochemical indices of liver function, including aspartate transaminase (AST), alanine aminotransferase (ALT), triglyceride (TG), total cholesterol (TCHO/TC), low-density lipoprotein cholesterol (LDL-C), and high-density lipoprotein cholesterol (HDL-C), were detected by the automatic blood biochemistry analyzer.

[4] = system: B6 mice fed with high fat feed (fatty liver); assay: Liver lipids (TG, TC in liver) in mice with induced fatty liver; assay type: in vivo
Experimental: as §1, §2, §3
In addition, abdominal fat and liver specimens were taken from the abdomens of sacrificed mice and weighted to compare the weight of fat and liver and obtain a ratio of liver weight to body weight. Two tissue blocks with a volume of approximately 1 cm^3 were cut from the largest right lobe of liver, fixed in 10% neutral formalin solution, and then embedded with paraffin for sectioning and H&E staining for histopathological observation. Moreover, the rest of the liver was frozen for preservation and detection of the contents of triglyceride and total cholesterol in the liver. Furthermore, the liver function of animals of each group were analyzed by Galactose Single Point Method, which was recognized and recommended for quantification of remaining liver function in clinical use by U.S. FDA and Ministry of Health and Welfare, Taiwan. At the end of the tests, 0.5 g of galactose (G.S.P.® 0.4 g/mL) per kg of animal was administered via intravenous. One hour after the administration, about 0.5 ml of whole blood was taken by using a filter paper to evaluate liver function of mice. The higher the value of GSP was, the worse the remaining liver function would be (FDA: “Guidance for Industry: Pharmacokinetics in Patients with Impaired. Hepatic Function—Study Design, Data Analysis and Impact on Dosing and. Labeling. 2003).

[5] = system: B6 mice fed with high fat feed (fatty liver); assay: Liver antioxidant capacity (Gpx, GSH, Grd, SOD) in mice with induced fatty liver; assay type: in vivo; details: for effect on liver antioxidant activity (in words): fatty liver mice
Experimental: as §1, §2, §3
About 0.1 g of liver tissue was taken from the sacrificed animal and homogenized by centrifuge with a biomasher for 10 minutes. A 9-fold weight (w/w) of buffer (pH 7.4, 50 mmol/L Tris-HCl, 180 mmol/L KCl) was added to the homogenized tissue, which was then mixed well by a Vortex mixer for subsequent use. The resulting homogenization solution samples of liver tissue was used for the analysis of various members of liver antioxidant systems, including glutathione peroxidase (GPx), glutathione (GSH), glutathione reductase (Grd), and superoxide dismutase (SOD). Methods of related analysis can be found in the known literatures, for example, the draft of “Method for evaluating the liver protection and health care efficacies of health food” announced by the Ministry of Health and Welfare, Taiwan.

[6] = Abdominal fat weight, liver weight and increase of body weight in high fat feed mice; assay type: in vivo, B6 mice; details: fatty liver mice
Experimental: as §1, §2
The animals of Blank were fed casually with normal feed for 12 weeks, while the animals of HFD, PS, and Test group were fed casually with high fat feed for 12 weeks. […]
In addition, abdominal fat and liver specimens were taken from the abdomens of sacrificed mice and weighted to compare the weight of fat and liver and obtain a ratio of liver weight to body weight. […] Furthermore, the liver function of animals of each group were analyzed by Galactose Single Point Method, which was recognized and recommended for quantification of remaining liver function in clinical use by U.S. FDA and Ministry of Health and Welfare, Taiwan. […]

Row | Compound | inhibition at 1 µM [1] [%] | large vesicular fat droplets within liver cells in liver tissue section [2] | effect on liver damages (NAS, in words) [2] | effect on ALT and AST values (in words) [3] | effect on TC in liver (in words) [4] | effect on TG in liver (in words) [4] | effect on liver antioxidant activity (in words) [5] | effect on weight of abdominal fat (in words) [6] | Gpx, GSH, Grd, and SOD levels (in words) ([5]; 4-week treatment)
1 | O=C1C[C@@H](c2ccc(O)c(O)c2)Oc2cc(O)cc(O)c21 [eriodictyol] | 35.1 ± 0.87 | significantly reduced | can significantly reduce liver damages | can significantly reduce ALT and AST values | reduces TC in liver significantly | reduces TG in liver significantly | can significantly enhance antioxidant activity |  | 
2 | OC[C@H]1O[C@H](O[C@]2(CCl)O[C@H](CCl)[C@@H](O)[C@@H]2O)[C@H](O)[C@@H](O)[C@H]1Cl [sucralose] | 26.7 ± 2.93 |  |  | can significantly reduce ALT and AST values | reduces TC in liver significantly | reduces TG in liver significantly |  | reduces the weight of abdominal fat in animals significantly | 
3 | CC1CCC(C(C)C)C(O)C1 (stereo not drawn) [menthol] | 66.2 ± 1.87 | significantly reduced |  | can significantly reduce ALT and AST values | reduces TC in liver significantly | reduces TG in liver significantly |  | reduces the weight of abdominal fat in animals significantly | 
4 | OC[C@@H](O)[C@@H](O)[C@H](O)[C@H](O)CO [mannitol] | 22.4 ± 5.74 | significantly reduced | can significantly reduce liver damages | can significantly reduce ALT and AST values | reduces TC in liver significantly | reduces TG in liver significantly | can significantly enhance antioxidant activity | reduces the weight of abdominal fat in animals significantly | substantial increases
